Reference: PubChem BioAssay (NCI)
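Where inhibition never reached the appropriate level, the endpoint shown equals the highest concentration tested. Otherwise, values were interpolated linearly from a five-concentration, 48-hour dose response in 96-well plates. TGI is the concentration that stops growth completely.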

How the values were obtained:
Assay in all cases: DTP human tumour cell line panel, 48 h
[1] = tested on: SNB-19 CNS
[2] = tested on: CAKI-1 renal
[3] = tested on: A498 renal
[4] = tested on: SK-MEL-28 melanoma
[5] = tested on: MDA-MB-435
[6] = tested on: MOLT-4 leukemia
[7] = tested on: HCC-2998 colon
[8] = tested on: SNB-75 CNS
[9] = tested on: DU-145 prostate
[10] = tested on: EKVX NSCLC
[11] = tested on: SK-MEL-2 melanoma
[12] = tested on: COLO 205 colon
[13] = tested on: RPMI-8226 leukemia
[14] = tested on: TK-10 renal
[15] = tested on: NCI-H460 lung
[16] = tested on: OVCAR-4 ovarian
[17] = tested on: MDA-N
[18] = tested on: RXF 393 renal
[19] = tested on: UACC-62 melanoma
[20] = tested on: SF-539 CNS

Compound	TGI [1] [µM]	TGI [2] [µM]	TGI [3] [µM]	TGI [4] [µM]	TGI [5] [µM]	TGI [6] [µM]	TGI [7] [µM]	TGI [8] [µM]	TGI [9] [µM]	TGI [10] [µM]	TGI [11] [µM]	TGI [12] [µM]	TGI [13] [µM]	TGI [14] [µM]	TGI [15] [µM]	TGI [16] [µM]	TGI [17] [µM]	TGI [18] [µM]	TGI [19] [µM]	TGI [20] [µM]
ONC1=Nc2ccccc2C(=S)N2CSCC12 (stereo unspecified)	> 100	> 100	> 100	> 100	48.1	> 100	> 100	> 100	> 100	> 100	> 100	> 100	> 100	> 100	42.3	> 100	45.1	> 100	> 100	
O=c1c(-c2ccccc2F)coc2cc(F)ccc12	> 100	> 100	> 100	> 100	> 100	> 100		96.4	> 100	> 100	> 100	> 100		> 100	> 100	> 100	> 100	> 100	> 100	> 100
COc1ccc(NC(C)=O)c(C(O)CCNC(C)=O)c1 (stereo unspecified)	> 100	> 100	> 100		> 100	> 100		> 100	> 100	> 100	> 100	> 100	> 100	> 100	> 100	> 100	> 100	> 100	> 100	> 100
CCOC(=O)c1cc(Br)c(-c2cc(C)no2)[nH]1	> 100		75.6	> 100	38.8	> 100		> 100	73.8	> 100	> 100	34.8	> 100	> 100	55	63	> 100	> 100	> 100	> 100
CN(C)c1ccc(C2CC(c3ccc4ccccc4c3O)=NN2c2ccc([N+](=O)[O-])cc2[N+](=O)[O-])cc1 (stereo unspecified)		> 100	> 100	> 100	34.6	94.5	> 100	> 100	> 100		> 100	> 100		> 100	> 100	> 100	30.5	> 100	37.2	> 100
CCOC(OCC)N1C(=O)C2(C(OCC)OCC)CC3C(OC(=O)N3N)c3cccc1c32 (stereo unspecified)	> 100	> 100	> 100	> 100	> 100	> 100	> 100		> 100	> 100		> 100	> 100	> 100	> 100	> 100	> 100	> 100	> 100	> 100
O=C1NNC2NC(=O)C3(NN2C1=O)c1ccccc1-c1ccccc13 (stereo unspecified)	> 100	> 100	> 100		> 100		> 100	> 100	> 100	> 100	> 100	> 100		> 100	> 100	> 100	> 100	> 100	> 100	> 100
O=C(O)[C@H](Cc1ccccc1)NCCN1CCC[C@H]1C(=O)O	> 100	> 100	> 100	> 100	> 100	> 100			> 100		> 100	> 100	> 100		> 100	> 100	> 100	> 100	> 100	> 100
O=C(NC(Cc1cnc[nH]1)C(=O)N1CCCC1)C1CCCC1 (stereo unspecified)	> 100	> 100	> 100	> 100	> 100	> 100	> 100	> 100	> 100	> 100		> 100	> 100	> 100	> 100	> 100	> 100	> 100	> 100	
Clc1ccc(OCc2nnc3sc(-c4ccc(-c5ccc(Cl)cc5Cl)o4)nn23)cc1	> 100	> 100	> 100	> 100	> 100	> 100		31.3	> 100	> 100	> 100	> 100	> 100	> 100	> 100	> 100	> 100	54		
C[N+](C)(C)c1cc2c(nn1)Nc1ccccc1S2	> 100	> 100	87.8	53.1	51.9	44.2	71.5		> 100	29.9	37.1	38	36	> 100	48.8	70.1	50.3	> 100	36.9	
CC1CN(c2cc3c(cc2F)c(=O)c(C(=O)O)cn3-c2ccc(F)cn2)CC(C)N1 (stereo unspecified)	> 100	> 100	> 100	> 100	> 100	> 100		> 100	> 100	> 100		> 100	> 100	> 100	> 100	> 100	> 100	> 100	> 100	> 100
COC(=O)[C@H]1COC(=O)N1	> 100	> 100	> 100	> 100	> 100	> 100	> 100	> 100	> 100	> 100	> 100	> 100		> 100	> 100	> 100	> 100	> 100	> 100	> 100
O/N=C1/CC2(N3CCOCC3)C3CC/C(=N\O)C2CC1(Cc1ccccc1)C3 (stereo unspecified)	> 100	> 100	> 100	> 100	> 100	> 100	> 100	96	> 100	> 100	> 100	> 100			> 100	> 100	> 100	> 100	> 100	> 100
CCN(CCCl)c1cc(CN(C)C)cc(NC(=O)C23CCC(C(=O)Nc4cc(CN(C)C)cc(N(CC)CCCl)c4)(CC2)CC3)c1	3.3	23.2	20.2	3.55	3.08	0.503	2.73	8.33	11.9		4.35	2.81	> 100	21.2	2.17	5.12	2.38	3.18	4.18	2.15
C#Cc1cc(Br)c(OC(=O)C(C)(C)C)c(-c2cc(C#C)cc(Br)c2OC(=O)C(C)(C)C)c1	> 100	> 100	> 100	> 100	> 100	> 100	90.7		> 100	> 100	> 100	> 100	46.4	> 100	> 100	> 100	> 100	46.7	> 100	> 100
CCOC(=O)c1c(C)n([O-])c2cc(Cl)c(Cl)cc2[n+]1=O	> 100	53	58	> 100	55.1	42.8	29.1		30.8	74.4	52	39	34.9	54.8	40.7	33.9	> 100	50.3	32.5	> 100
COC(=O)C1=C(C)NC(C)=C(C(=O)OC)C1c1ccc(N=O)cc1	> 81.2	27.9		33.4	32.6	> 100	33.7	26.1	19.2	34.1	28.2	24.5	5.02	29.2	41.9	14.2	16.6	23.5	30	32
CC(=O)c1ccc2c(c1)CC1(C2)Cc2ccc3c(c2C1=O)CCC3 (stereo unspecified)	> 100	> 100	> 100	56.5	45.3	> 100	37.8	91.3	> 100		35.5	39.9	> 100	64.2	> 100	> 100	94.6	97	74.7	> 100
CC1(C)N=C(N)N=C(N)N1c1cccc(C(=O)Nc2ccc(S(=O)(=O)F)cc2)c1	> 100	> 100	> 100	> 100	> 100	> 100		> 100	> 100	> 100	> 100	> 100	> 100	> 100	> 100	> 100	> 100	> 100	> 100	> 100
CC(NC(=O)c1ccc(NP(=O)(OCc2ccc([N+](=O)[O-])o2)N(C)CCCCCl)cc1)c1ccc(OCC2CCCCC2)c(C(N)=O)c1 (stereo unspecified)	90.8	> 100	49.2	31.6	33.6	68.8	24.2	31.7	> 100		49.3	22.8	21.1	80.7	72.3	49.6	62.4	31	26.4	33.7
N=CN=CC(=S)O[C@@H]1C(=O)N2CCC[C@@]23CCCC[C@@H]13	> 12.5	> 12.5	> 12.5	> 12.5	> 12.5		> 12.5	> 12.5	> 12.5	> 12.5	> 12.5	> 12.5	> 12.5	> 12.5	> 12.5	> 12.5	> 12.5	> 12.5	> 12.5	
COc1cc(/C=C\c2nnc(/C=C\c3ccc(O)c(OC)c3)s2)ccc1O	> 82.1	44.2	6.4	> 100	0.549	10.7	12.9	8.83	8.26	18.4	26	41.4		> 51.2	> 35.2	19.9	16.4	4.75	18.8	> 26.4
CCN(CC)C(=S)SC(C(=O)Nc1nnc(-c2ccccc2)o1)c1ccccc1 (stereo unspecified)	> 100	50	40.7	54.6	34.8	> 100		> 100	57.8	49.5	46.7	84.4	> 100	> 100	31.6	> 100	36.5	39.8		65.9
O=C(N/N=C/c1ccc([N+](=O)[O-])cc1)Nc1ccc(Br)cc1	> 100	> 100		> 100	> 100	> 100	90.9	> 100	> 100	> 100	> 100	> 100	> 100	> 100	> 100	> 100	> 100	> 100	> 100	> 100
